{"source": "patent US9594084B2", "about": "“Phosphorylation of histones and uses thereof” (H. LEE MOFFITT CANCER CENTER AND RESEARCH INSTITUTE, priority 2012, dated 2017)", "key": {"ATM": {"target": "T1, ATM (Homo sapiens, UniProt Q13315)", "T1 construct": "endogenous in cells; host or cells: H1975", "assay": "IR-induced de-phosphorylation of pY37-H2B in H1975 cells (immunoblot)", "type": "cell-based", "conditions": "H1975 irradiated (15GY)", "description": "Whole cell extracts were immunoblotted with indicated antibodies.\nTo determine whether pY37-H2B de-phosphorylation is regulated by ATM recruited to the sites of DSBs by the MRN complex, Applicants treated the cells with the ATM inhibitor Ku55393. […] EYA in turn interacted with H2AX executing a damage-signal-dependent dephosphorylation of Tyr142, that is constitutively phosphorylated in the absence of DNA damage (Cook, P. J. et al. (2009) Nature, 458(7238):591-596)."}, "Xenopus laevis embryos": {"tested_on": "Xenopus laevis embryos", "description": "Table 4 provides the phenotype distribution for surviving embryos (raw data are identical to those in Table 3)."}, "Ack1 [1]": {"target": "T2, Ack1 (Homo sapiens, UniProt Q07912)", "T2 sequence (Q07912 whole entry)": "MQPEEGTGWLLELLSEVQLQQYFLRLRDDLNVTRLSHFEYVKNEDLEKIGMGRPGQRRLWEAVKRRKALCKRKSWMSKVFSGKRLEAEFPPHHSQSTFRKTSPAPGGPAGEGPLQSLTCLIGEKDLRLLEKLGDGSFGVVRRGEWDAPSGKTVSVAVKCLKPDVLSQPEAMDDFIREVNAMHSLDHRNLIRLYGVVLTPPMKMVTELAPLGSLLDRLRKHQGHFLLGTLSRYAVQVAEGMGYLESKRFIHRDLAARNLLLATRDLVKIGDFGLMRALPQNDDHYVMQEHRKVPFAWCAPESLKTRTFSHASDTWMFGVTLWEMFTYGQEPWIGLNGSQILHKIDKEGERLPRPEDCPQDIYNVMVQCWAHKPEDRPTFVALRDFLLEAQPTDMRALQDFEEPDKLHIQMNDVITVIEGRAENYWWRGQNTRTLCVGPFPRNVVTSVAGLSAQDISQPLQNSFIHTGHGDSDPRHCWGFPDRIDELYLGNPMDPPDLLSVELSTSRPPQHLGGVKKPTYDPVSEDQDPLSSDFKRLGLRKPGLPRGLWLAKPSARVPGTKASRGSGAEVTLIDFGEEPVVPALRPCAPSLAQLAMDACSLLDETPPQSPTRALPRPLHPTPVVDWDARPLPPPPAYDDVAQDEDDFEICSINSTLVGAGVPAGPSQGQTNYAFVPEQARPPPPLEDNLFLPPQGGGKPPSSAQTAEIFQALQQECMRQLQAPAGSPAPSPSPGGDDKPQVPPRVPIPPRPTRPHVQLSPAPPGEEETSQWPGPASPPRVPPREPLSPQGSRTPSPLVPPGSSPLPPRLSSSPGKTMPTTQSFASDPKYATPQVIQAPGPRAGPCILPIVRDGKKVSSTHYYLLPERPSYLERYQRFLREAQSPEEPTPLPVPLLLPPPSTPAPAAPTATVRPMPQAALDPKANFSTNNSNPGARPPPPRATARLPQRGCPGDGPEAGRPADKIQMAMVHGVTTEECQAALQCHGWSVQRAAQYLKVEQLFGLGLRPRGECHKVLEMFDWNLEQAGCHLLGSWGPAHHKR", "type": "biochemical", "experimental": "Purified histone H3 and Ack1 were incubated at 37° C. for 1 hour with or without AIM-100 followed by immunoblotting with indicated antibodies."}, "[2]": {"tested_on": "pTyr-AR recruitment to PSA, NKX3,1 and TMPRSS2 promoters", "assay": "ChIP-qPCR for pTyr267-AR binding to PSA, NKX3.1 and TMPRSS2 AREs in LAPC4 cells", "type": "cell-based", "conditions": "EGF (10 ng/ml, 1 hr), AIM-100 0.8 μM, 16 hr", "method": "FIG. 8A-8C are bar graphs showing Ack1 inhibition by AIM-100 suppressed recruitment of pTyr-AR to PSA (FIG. 8A), NKX3.1 (FIG. 8B) and TMPRSS2 (FIG. 8C) promoters. LAPC4 cells were treated with DHT (5 nM, 16 hr) or EGF (10 ng/ml, 1 hr), and AIM-100 (0.8 μM, 16 hr) and ChIP analysis for pTyr267-AR binding to the PSA, NKX3.1 and TMPRSS2 AREs was performed followed by qPCR. *p=0.001; **p=0.006; ***p=0.014.\nLAPC4 cells were treated with DHT (5 nM, 16 hr), EGF (10 ng/ml, 1 hr), or EGF and AIM-100 (0.8 μM, 16 hr) and ChIP analysis for pTyr267-AR binding to the PSA, NKX3.1 and TMPRSS2 AREs was performed followed by qPCR. Ack1 inhibition by AIM-100 suppressed recruitment of pTyr-AR to PSA, NKX3,1 and TMPRSS2 promoters (FIGS. 8A-8C)."}, "[3]": {"tested_on": "LNCaP-caAck expressing cells", "assay": "LNCaP-caAck prostate xenograft tumor growth in castrated nude male mice", "type": "in vivo", "conditions": "4 mg/kg of body weight per injection, five times", "method": "FIG. 9 is a line graph showing prostate xenograft tumor volume (mm^3) in castrated nude male mice treated with AIM-100 Ack1 inhibitor or DMSO control. Castrated nude male mice were injected with LNCaP-caAck expressing cells. Mice were injected with AIM-100 (4 mg/kg of body weight per injection) on five times (n=8) and tumor volumes were measured.\nCastrated nude male mice were injected with LNCaP-caAck expressing cells. Mice were injected with AIM-100 (4 mg/kg of body weight per injection) on five times (n=8) and tumor volumes were measured."}, "H3K9 and K27 methylation": {"tested_on": "H3K9 and K27 methylation", "assay": "Immunoblot of H3K9/H3K27 methylation in LAPC4 cells", "type": "cell-based", "method": "FIG. 25 is an immunoblot of lysates from LAPC4 cells that were untreated (column 1), treated with EGF (column 2), or treated with EGF and AIM-100 (column 3) that were immunoblotted with H3K9 dimethyl (top panel), H3K27 (middle panel), or H3 (bottom panel) antibodies.\nThe prostate cancer derived cells, LAPC4 were treated with AIM-100 (7 uM, 16 hours). The equal amount of cell lysates were subjected to immunoblotting with H3K9me3 and histone H3 antibodies. […] The histone H3 antibodies were used as a control to indicate equal amount of protein.\n(§1) LAPC4 cells were treated with EGF or EGF and AIM-100 and the lysates were immunoblotted with H3K9 dimethyl and H3K27 dimethyl antibodies. Thus, marking of chromatin with H3-Tyr99-phosphorylation within AR-target gene promoters may suppress repressive dimethylation leading to transcriptional activation in androgen-deprived environment of prostate tumors.\nas §1, with “H3K9” for “H3K9 dimethyl”, “H3K27” for “H3K27 dimethyl”"}, "Ack1 [4]": {"target": "T3, Ack1 (Homo sapiens, UniProt Q07912, E346K)", "T3 construct": "HA; made in house", "T3 sequence (Q07912 whole entry E346K)": "as the sequence (Q07912 whole entry) above, with E346K counted along it", "type": "biochemical", "conditions": "5 uM for 1 hour at 30° C."}, "Ack1 [5]": {"target": "T2, Ack1", "type": "biochemical", "conditions": "ELISA, read at 450 nm", "method": "WEE1 and Ack1 are two non-receptor tyrosine kinases or NRTKs that have known nuclear functions. To determine whether WEE1 and Ack1 can directly target H4 for Tyr88-phosphorylation, this study performed in vitro kinase assay. In brief, the Streptavidin coated 96-well plates (R&D systems) were incubated with biotinylated H4-derived peptide […] (SEQ ID NO: 64) for 1 hour. The plates were washed and the purified WEE1 or Ack1 were added in kinase buffer (20 mM HEPES, 150 mM NaCl, 0.5% Triton X-100, 10% Glycerol, phosphatase and protease inhibitors) containing ATP and MgCl2. After 2 hours of incubation, plates were washed with phosphate buffered saline containing 0.1% Tween 20 (PBST) and blocked in 3% BSA. The pY88-H4 antibodies (at 1:500 dilution) were added and incubated for 1 hour. Unbound antibodies were washed and HRP-conjugated anti-mouse secondary Antibodies (1:2000) were added. Magnitude of phosphorylation was detected using developer solution (OPD tablets, Sigma) and the plates were read at 450 nm. As a negative control, no kinase and no peptide reactions were used. The biotinylated phosphopeptide […]p[…] (SEQ ID NO: 65) was used as a positive control."}, "[6]": {"conditions": "Table 3, of total injected embryos"}}, "note": "Entries after “also recorded” stand apart in the source; their conditions may differ."}
{"smiles": "O=c1cc(-c2cccc3c2Sc2ccccc2S3)oc(N2CCOCC2)c1", "note": "[Ku55393]", "values": [{"measurement": "IR-induced de-phosphorylation of pY37-H2B", "setting": "ATM", "value": "prevented"}]}
{"smiles": "c1ccc(-c2oc3ncnc(NC[C@@H]4CCCO4)c3c2-c2ccccc2)cc1", "note": "[AIM-100]", "values": [{"measurement": "abn/delay, gastrulation is abnormal or delayed (% of total)", "setting": "Xenopus laevis embryos; [6]", "value": "(6.7%)"}, {"measurement": "abn/delay, gastrulation is abnormal or delayed (number of embryos)", "setting": "Xenopus laevis embryos; [6]", "value": 15}, {"measurement": "dead (% of total)", "setting": "Xenopus laevis embryos; [6]", "value": "(43%)"}, {"measurement": "dead (number of embryos)", "setting": "Xenopus laevis embryos; [6]", "value": 97}, {"measurement": "epib blk, epiboly block phenotype (% of total)", "setting": "Xenopus laevis embryos; [6]", "value": "(29%)"}, {"measurement": "epib blk, epiboly block phenotype (number of embryos)", "setting": "Xenopus laevis embryos; [6]", "value": 65}, {"measurement": "epib red, partial phenotype (% of total)", "setting": "Xenopus laevis embryos; [6]", "value": "(8%)"}, {"measurement": "epib red, partial phenotype (number of embryos)", "setting": "Xenopus laevis embryos; [6]", "value": 18}, {"measurement": "norm. (% of total)", "setting": "Xenopus laevis embryos; [6]", "value": "(11%)"}, {"measurement": "norm. (number of embryos)", "setting": "Xenopus laevis embryos; Table 3, of total injected embryos, antibodies 200 ng/em, AIM-100 200 pM/em", "value": 24}, {"measurement": "abn/delay (% of survivors)", "setting": "Xenopus laevis embryos; Table 4, surviving embryos", "value": 12, "unit": "%"}, {"measurement": "abn/delay (number of embryos)", "setting": "Xenopus laevis embryos; Table 4, surviving embryos", "value": 15}, {"measurement": "epib blk (number of embryos)", "setting": "Xenopus laevis embryos; Table 4, surviving embryos", "value": 65}, {"measurement": "epib red (number of embryos)", "setting": "Xenopus laevis embryos; Table 4, surviving embryos", "value": 18}, {"measurement": "normal (% of survivors)", "setting": "Xenopus laevis embryos; Table 4, surviving embryos", "value": 19, "unit": "%"}, {"measurement": "normal (number of embryos)", "setting": "Xenopus laevis embryos; Table 4, surviving embryos", "value": 24}, {"measurement": "mortality rate", "setting": "Xenopus laevis embryos; by the onset of gastrulation (~20 hours after microinjection at the 2-cell stage, 16° C.)", "value": "43-45%"}, {"measurement": "timing or pattern of early cleavages", "setting": "Xenopus laevis embryos; injected embryos", "value": "did not alter"}, {"measurement": "epib blk, epiboly block/involution failure (% of survivors)", "setting": "Xenopus laevis embryos; surviving embryos", "value": 51, "unit": "%"}, {"measurement": "epib red, partial reduced epiboly phenotype (% of survivors)", "setting": "Xenopus laevis embryos; surviving embryos", "value": 14, "unit": "%"}, {"measurement": "Ack1 phosphorylation of H3 at Tyr99", "setting": "Ack1 [1]", "value": "significantly compromised"}, {"measurement": "recruitment of pTyr-AR to PSA, NKX3,1 and TMPRSS2 promoters", "setting": "[2]", "value": "suppressed"}, {"measurement": "prostate xenograft tumor growth", "setting": "[3]", "value": "mitigated the growth; also recorded: partially suppresses"}, {"measurement": "H3K9 and K27 dimethylation and trimethylation", "setting": "H3K9 and K27 methylation", "value": "increased"}, {"measurement": "H3 K9 trimethylation", "setting": "H3K9 and K27 methylation; LAPC4 cells, 7 uM, 16 hours", "value": "increased; also recorded: significant increase"}, {"measurement": "H3K9 and K27 dimethylation", "setting": "H3K9 and K27 methylation; LAPC4 cells, EGF and AIM-100", "value": "increased"}, {"measurement": "H4 pTyr51-phosphorylation by purified E346K-Ack1", "setting": "Ack1 [4]", "value": "abrogated"}, {"measurement": "H4 Tyr88-phosphorylation by Ack1", "setting": "Ack1 [5]", "value": "significantly decreased"}]}
